Measured values: the NIST ThermoML archive (doi:10.1016/j.jct.2017.11.017)
± gives the expanded uncertainty stated by the source.

Experiment: activity coefficient (dimensionless); of the first substance listed, at infinite dilution; xn = mol fraction of the nth substance listed
Settings: 101.33 kPa, Liquid, Chromatography, x1 = 0

| SMILES | activity coefficient (298.15 K) | activity coefficient (308.15 K) | activity coefficient (318.15 K) | activity coefficient (328.15 K) | activity coefficient (338.15 K) | activity coefficient (348.15 K) | activity coefficient (358.15 K) | activity coefficient (368.15 K) |
| --- | --- | --- | --- | --- | --- | --- | --- | --- |
| C=CCCCCCC [oct-1-ene] + C[n+]1ccn(CCCO)c1.N#CN=C=[N-] | 358 ± 25 | 331 ± 23 | 305 ± 21 | 282 ± 19 | 263 ± 18 | 245 ± 17 | 234 ± 16 | – |
| CC(C)c1ccccc1 [isopropylbenzene] + C[n+]1ccn(CCCO)c1.N#CN=C=[N-] | – | – | 25.8 ± 1.8 | 26.2 ± 1.8 | 26.6 ± 1.8 | 26.8 ± 1.8 | 27.1 ± 1.9 | 27.4 ± 1.9 |
| C=CCCCCCC [oct-1-ene] + C[N+]1(CCCO)CCOCC1.N#C[N-]C#N | 1170 ± 81 | 937 ± 65 | 764 ± 53 | 635 ± 44 | 534 ± 37 | 453 ± 31 | – | – |
| CCC(C)(C)OC [2-methoxy-2-methylbutane] + C[n+]1ccn(CCCO)c1.N#CN=C=[N-] | – | – | 36.8 ± 2.5 | 37 ± 2.5 | 37.2 ± 2.5 | 37.5 ± 2.6 | 37.7 ± 2.6 | 38.1 ± 2.6 |
| CCC(=O)OC [methyl propanoate] + C[n+]1ccn(CCCO)c1.N#CN=C=[N-] | – | – | 5.29 ± 0.36 | 5.48 ± 0.37 | 5.73 ± 0.39 | 5.92 ± 0.4 | 6.14 ± 0.42 | 6.34 ± 0.43 |
| C=C(C)c1ccccc1 [(1-methylethenyl)benzene] + C[N+]1(CCCO)CCOCC1.N#C[N-]C#N | – | – | 18.1 ± 1.2 | 18.9 ± 1.3 | 19.5 ± 1.3 | 20.1 ± 1.4 | 20.7 ± 1.4 | 21.3 ± 1.5 |
| C=C(C)c1ccccc1 [(1-methylethenyl)benzene] + C[n+]1ccn(CCCO)c1.N#CN=C=[N-] | – | – | 10.2 ± 0.7 | 10.9 ± 0.7 | 11.5 ± 0.8 | 12.1 ± 0.8 | 12.7 ± 0.9 | 13.3 ± 0.9 |
| CC1CCCCC1 [methylcyclohexane] + C[n+]1ccn(CCCO)c1.N#CN=C=[N-] | 207 ± 14 | 187 ± 13 | 169 ± 12 | 154 ± 11 | 141 ± 10 | 131 ± 9 | 121 ± 8 | – |
| CCCCCCCCC [nonane] + C[N+]1(CCCO)CCOCC1.N#C[N-]C#N | – | 2260 ± 160 | 1870 ± 130 | 1570 ± 110 | 1340 ± 92 | 1160 ± 80 | 994 ± 69 | 867 ± 60 |
| CC(C)CO [2-methyl-1-propanol] + C[N+]1(CCCO)CCOCC1.N#C[N-]C#N | – | – | 4.72 ± 0.32 | 4.54 ± 0.31 | 4.38 ± 0.3 | 4.25 ± 0.29 | 4.12 ± 0.28 | 4 ± 0.27 |
| C1=CCCCC1 [cyclohexene] + C[N+]1(CCCO)CCOCC1.N#C[N-]C#N | 121 ± 8 | 97 ± 6.7 | 79.1 ± 5.4 | 65.3 ± 4.5 | – | – | – | – |
| CO [methanol] + C[n+]1ccn(CCCO)c1.N#CN=C=[N-] | – | – | 0.63 ± 0.04 | 0.64 ± 0.04 | 0.654 ± 0.045 | 0.66 ± 0.05 | 0.679 ± 0.046 | 0.69 ± 0.05 |
| CCCC(=O)OC [methyl butanoate] + C[N+]1(CCCO)CCOCC1.N#C[N-]C#N | – | – | 15.8 ± 1.1 | 15.9 ± 1.1 | 16.1 ± 1.1 | 16.2 ± 1.1 | 16.3 ± 1.1 | 16.5 ± 1.1 |
| C#CCCC [1-pentyne] + C[N+]1(CCCO)CCOCC1.N#C[N-]C#N | – | 24.2 ± 1.7 | 23.6 ± 1.6 | 23.1 ± 1.6 | 22.7 ± 1.6 | 22.4 ± 1.5 | 22 ± 1.5 | 21.7 ± 1.5 |
| CCCCCC [hexane] + C[n+]1ccn(CCCO)c1.N#CN=C=[N-] | 357 ± 25 | 319 ± 22 | 286 ± 20 | 257 ± 18 | 233 ± 16 | – | – | – |
| CCC(C)O (stereo not drawn) [butan-2-ol] + C[n+]1ccn(CCCO)c1.N#CN=C=[N-] | – | – | 2.74 ± 0.19 | 2.72 ± 0.19 | 2.72 ± 0.19 | 2.72 ± 0.19 | 2.7 ± 0.18 | 2.71 ± 0.18 |
| C#CCCCC [1-hexyne] + C[N+]1(CCCO)CCOCC1.N#C[N-]C#N | – | 44.5 ± 3 | 42.9 ± 2.9 | 41.6 ± 2.8 | 40.2 ± 2.8 | 39.1 ± 2.7 | 38 ± 2.6 | 37 ± 2.5 |
| CC(C)(C)O [2-methylpropan-2-ol] + C[n+]1ccn(CCCO)c1.N#CN=C=[N-] | – | – | 2.58 ± 0.18 | 2.63 ± 0.18 | 2.68 ± 0.18 | 2.71 ± 0.18 | 2.74 ± 0.19 | 2.79 ± 0.19 |
| CC(C)c1ccccc1 [isopropylbenzene] + C[N+]1(CCCO)CCOCC1.N#C[N-]C#N | – | – | 52.5 ± 3.6 | 51.2 ± 3.5 | 50.3 ± 3.4 | 49.2 ± 3.4 | 48.4 ± 3.3 | 47.5 ± 3.3 |
| C=CCCCCCCCC [1-decene] + C[N+]1(CCCO)CCOCC1.N#C[N-]C#N | – | 1640 ± 110 | 1460 ± 100 | 1300 ± 89 | 1160 ± 80 | 1050 ± 72 | 952 ± 66 | 875 ± 60 |
| CCCCO [butan-1-ol] + C[n+]1ccn(CCCO)c1.N#CN=C=[N-] | – | – | 2.8 ± 0.19 | 2.75 ± 0.19 | 2.73 ± 0.19 | 2.7 ± 0.18 | 2.69 ± 0.18 | 2.68 ± 0.18 |
| C1CCCC1 [cyclopentane] + C[n+]1ccn(CCCO)c1.N#CN=C=[N-] | 69.3 ± 4.7 | 63.7 ± 4.4 | 58.7 ± 4 | 54.5 ± 3.7 | – | – | – | – |
| CCCCO [butan-1-ol] + C[N+]1(CCCO)CCOCC1.N#C[N-]C#N | – | – | 4.66 ± 0.32 | 4.5 ± 0.31 | 4.39 ± 0.3 | 4.26 ± 0.29 | 4.17 ± 0.28 | 4.08 ± 0.28 |
| C#CCCCCCC [1-octyne] + C[N+]1(CCCO)CCOCC1.N#C[N-]C#N | – | 151 ± 10 | 145 ± 10 | 138 ± 9 | 133 ± 9 | 128 ± 9 | 122 ± 8 | 118 ± 8 |
| COC(C)=O [methyl ethanoate] + C[n+]1ccn(CCCO)c1.N#CN=C=[N-] | – | – | 3.07 ± 0.21 | 3.21 ± 0.22 | 3.35 ± 0.23 | 3.5 ± 0.24 | 3.64 ± 0.25 | 3.8 ± 0.26 |
| CC(C)=O [acetone] + C[n+]1ccn(CCCO)c1.N#CN=C=[N-] | – | – | 1.76 ± 0.12 | 1.83 ± 0.12 | 1.92 ± 0.13 | 2 ± 0.14 | 2.09 ± 0.14 | 2.19 ± 0.15 |
| C=CCCC [1-pentene] + C[n+]1ccn(CCCO)c1.N#CN=C=[N-] | 74 ± 5.1 | 68.1 ± 4.7 | 63.5 ± 4.3 | 59.3 ± 4.1 | – | – | – | – |
| c1ccncc1 [pyridine] + C[N+]1(CCCO)CCOCC1.N#C[N-]C#N | – | – | 1.71 ± 0.11 | 1.8 ± 0.12 | 1.89 ± 0.13 | 1.97 ± 0.13 | 2.06 ± 0.14 | 2.15 ± 0.15 |
